The results in this text go back to ChEMBL document CHEMBL3507680, “University of Dundee, Gates Library screen for HepG2 cell viability”.

The nature of the data set: Human HepG2 cell viability assay in 384 well format. Type of data set: toxicity, cell-based. Further details: dose 125 nL, time 70.5 hour; cytotoxicity at 70.5 h: concentration not given beside the values. The note with it: HepG2 cells, read-out: Inhibition.
With `CC(=O)N1CCC2(CCN(S(=O)(=O)c3ccccc3)CC2)C1`, the cytotoxicity at 70.5 h came to 22.3%.

As for `CC(=O)N1CCC2(CC1)CCN(S(=O)(=O)c1ccccc1)C2`, the cytotoxicity at 70.5 h is 29.2%.

For `CCCS(=O)(=O)N1C[C@H]2C[C@H](C(=O)N3CCOCC3)[C@@H](C1)O2`, the cytotoxicity at 70.5 h was -4.21%.

For the molecule `O=C(CCc1ccccc1)N1C[C@H]2CCN[C@H]2C1`, the cytotoxicity at 70.5 h was -7.82%.

For `O=C(N[C@H]1CC[C@@]2(CCC(=O)N2CC2CC2)CC1)c1cnccn1`, the cytotoxicity at 70.5 h is -11%.

On to `COCCN1C(=O)CC[C@]12CC[C@@H](NC(=O)c1cnccn1)CC2`, for which the cytotoxicity at 70.5 h is -2.82%.

Turning to `Cc1cc(C(=O)N2CC[C@@H]3CN(C)S(=O)(=O)[C@@H]3CC2)no1`, the cytotoxicity at 70.5 h is -7.25%.

With `CC(C)CN1C[C@H]2CCN(C(=O)c3ccccn3)CC[C@H]2S1(=O)=O`, the cytotoxicity at 70.5 h is -4.38%.

With `CCC(=O)N1CCC2(CC1)CC(CC(=O)NC1CC1)c1ccccc1O2` (stereo not given), the cytotoxicity at 70.5 h was 5.58%.

Consider `O=C(NC1CC1)N1C[C@H]2CN(c3ccccc3)C(=O)[C@H]2C1`, for which the cytotoxicity at 70.5 h is 4.91%.

`CCc1cnc(N2CCC3(CCN(Cc4cccc(C)c4)C3=O)C2)nc1` (stereo not given): the cytotoxicity at 70.5 h was 1.75%.

As for `CO[C@@H]1CCN(C(=O)c2cc(C)on2)C[C@@H]1Cc1ccccc1`, the cytotoxicity at 70.5 h came to 20.3%.

With `O=C1CCC2(CCN(Cc3ccsc3)CC2)N1Cc1ccccc1`, the cytotoxicity at 70.5 h is -10.3%.

In the case of `O=C1[C@H]2CN(C(=O)[C@H]3CCCO3)C[C@H]2CN1CC1CC1`, the cytotoxicity at 70.5 h was -5.67%.

Take `O=C(CCO)N1C[C@H]2CN(c3ccccc3)C(=O)[C@H]2C1`: the cytotoxicity at 70.5 h was -8.23%.

With `O=C(NCCc1ccccn1)[C@@]12CCO[C@@H]1CCN(CC1CC1)C2`, the cytotoxicity at 70.5 h was -5.28%.

Take `COc1ccc(C[C@H]2CN(C(=O)c3cscn3)CC[C@@H]2OC)cc1`: the cytotoxicity at 70.5 h is 49.9%.

As for `O=C(c1ccoc1)N1CCC2(CC1)C(=O)N(CC1CC1)c1ccccc12`, the cytotoxicity at 70.5 h was -2.01%.

For the molecule `O=C([C@H]1CCCO1)N1CCC2(CC1)C(=O)N(CC1CC1)c1ccccc12`, the cytotoxicity at 70.5 h was -1.06%.

Consider `CC(=O)N1CCC2(C1)C(=O)N(CC1CC1)c1ccccc12` (stereo not given), for which the cytotoxicity at 70.5 h is -8.89%.

For the molecule `Cc1cccc(CN2CCc3nnc(CN(C)C)n3CC2)n1`, the cytotoxicity at 70.5 h was -10.7%.

For `O=C1N(Cc2ccc(Cl)cc2)CCC12CCCNC2` (stereo not given), the cytotoxicity at 70.5 h is -12.9%.

In the case of `O=C1N(Cc2cccc(Cl)c2)CCC12CCCNC2` (stereo not given), the cytotoxicity at 70.5 h was -12.1%.

As to `CCc1ccc(CN2CC[C@@H]3NC(=O)CC[C@@H]32)o1`, the cytotoxicity at 70.5 h was determined as 27%.

For `O=C(C1CC1)N1CCC2(CCN2Cc2ccc(F)cc2)C1` (stereo not given), the cytotoxicity at 70.5 h is -0.516%.

Turning to `Cc1nc(CN2C[C@@H]3CN(C(=O)c4cccn4C)C[C@@H]3C2)cs1`, the cytotoxicity at 70.5 h was -6.14%.

Take `CCN1C(=O)CC(c2ccccc2)C12CCN(CC1CCOCC1)CC2` (stereo not given): the cytotoxicity at 70.5 h is -8.46%.

In the case of `COc1ccc(C[C@H]2CNCC[C@@H]2OC)cc1`, the cytotoxicity at 70.5 h is -5.86%.

Regarding `CC(C)NC(=O)N1CC[C@H]2[C@H]1CCN2c1ncccn1`, the cytotoxicity at 70.5 h was -5.58%.

For `Cc1ccc(CN2C[C@@H]3CN(C(=O)c4cccn4C)C[C@@H]3C2)cc1`, the cytotoxicity at 70.5 h was -3.66%.

`CNC(=O)N1CC[C@H]2N(C)CC[C@@]2(C(=O)N2CCOCC2)CC1`: the cytotoxicity at 70.5 h is -4.42%.

Turning to `O=C(CC1CCCC1)N1CCC2(CCN2Cc2ccc(F)cc2)C1` (stereo not given), the cytotoxicity at 70.5 h is 1.62%.

For `O=C1Nc2ccccc2C12CCN(Cc1nccs1)CC2`, the cytotoxicity at 70.5 h is -1.05%.

Take `COc1ccc(C[C@H]2CNCC[C@H]2OC)cc1`: the cytotoxicity at 70.5 h was -6.44%.

Turning to `CCN1C[C@H]2[C@@H](C1)N(C(=O)Cc1ccsc1)CC[C@H]2OC`, the cytotoxicity at 70.5 h was -7.9%.

For `CS(=O)(=O)N1CC2(CCN(C(=O)c3ccncc3)CC2)c2ccccc21`, the cytotoxicity at 70.5 h was -6.91%.

For `COCCN1CCC2(CC1)CC(NC(=O)COC)c1ccccc1O2` (stereo not given), the cytotoxicity at 70.5 h was -7.59%.

Turning to `CC(C)NC(=O)N1CCC2(CCC(=O)N2CCN2CCCC2)CC1`, the cytotoxicity at 70.5 h is -9.28%.

As for `Cc1cccc(CN2CC[C@H]3[C@@H]2CC(=O)N3CC2CC2)n1`, the cytotoxicity at 70.5 h is -9.45%.

For `COCCN1CCC2(CC1)CC(NC(=O)C(C)C)c1ccccc1O2` (stereo not given), the cytotoxicity at 70.5 h is -4.05%.

`Cc1cnc(N2CCC3(CCCN3C(=O)c3ccco3)CC2)nc1`: the cytotoxicity at 70.5 h is -2.74%.

Turning to `Cc1cccc(CN2CCC3(CCN(c4ncccn4)CC3)C2=O)c1`, the cytotoxicity at 70.5 h was found to be 1.2%.

In the case of `CN(C)CC(=O)N1CC2(CCN(C(=O)Nc3ccccc3)C2)C1`, the cytotoxicity at 70.5 h is 22.9%.

`O=C(c1ccco1)N1CCCC12CCN(c1ncccn1)CC2`: the cytotoxicity at 70.5 h was -7.14%.

Consider `COc1ccc(C[C@H]2CN(C(=O)c3ccc(C)nc3)CC[C@@H]2OC)cc1`, for which the cytotoxicity at 70.5 h was -2.92%.

For the molecule `COCCN1CCCC2(CCC(=O)N2Cc2cccnc2)C1` (stereo not given), the cytotoxicity at 70.5 h is 28.9%.

With `Cc1cccc(CN2C[C@@H]3CN(C(=O)c4cnccn4)C[C@@H]3C2=O)n1`, the cytotoxicity at 70.5 h is -0.986%.

For the molecule `Cc1cccc(CN2CCCn3c(nnc3CN3CCCC3=O)C2)n1`, the cytotoxicity at 70.5 h was -9.11%.

Take `COc1ccc(CN2CCC3(CC2)CCN(CC(=O)N(C)C)C3=O)cc1`: the cytotoxicity at 70.5 h was -16.7%.

For the molecule `O=C(O)[C@]12CCCN(Cc3cccs3)C[C@H]1CN(c1ncccn1)C2`, the cytotoxicity at 70.5 h was -9.42%.

For `Cc1ccc(CN2CCO[C@@H]3C[C@@H](C(=O)NC(C)C)C[C@H]32)o1`, the cytotoxicity at 70.5 h is -8.04%.

Consider `CC(C)NC(=O)[C@H]1C[C@@H]2[C@@H](C1)OCCN2Cc1ccco1`, for which the cytotoxicity at 70.5 h is -8.12%.

Turning to `COc1ccc(CN2CCO[C@@H]3C[C@@H](C(=O)NC(C)C)C[C@H]32)cc1`, the cytotoxicity at 70.5 h was -5.46%.

`O=C(O)[C@]12CCCN(Cc3ccoc3)C[C@H]1CN(c1ncccn1)C2`: the cytotoxicity at 70.5 h was -6.33%.

Regarding `O=C1NC(c2ccccc2)=N[C@@]12CC[C@@H]1CN(CC3CC3)C[C@@H]12`, the cytotoxicity at 70.5 h is -10.6%.

Consider `Cc1ccc(CN2CCc3ncnc(OC(C)C)c3CC2)s1`, for which the cytotoxicity at 70.5 h was -6.82%.

`CC(C)NC(=O)[C@H]1C[C@@H]2[C@@H](C1)OCCN2Cc1nccs1`: the cytotoxicity at 70.5 h was -4.27%.

In the case of `O=C(C1=CCCC1)N1CCC[C@]2(C[C@@H](OCc3ccccn3)CO2)C1`, the cytotoxicity at 70.5 h is -15.2%.

With `Cc1cccc(CN2CCCCC23CCNC3)n1` (stereo not given), the cytotoxicity at 70.5 h was -8.16%.

On to `O=C(c1n[nH]c2c1CN(C1CCOCC1)CC2)N1CCCC1`, for which the cytotoxicity at 70.5 h is -6.32%.

`O=C(NCCc1ccccn1)[C@@]12CCO[C@@H]1CCN(C1CCC1)C2`: the cytotoxicity at 70.5 h is -6.9%.

In the case of `CN(C)C1COC2(CCN(Cc3ccc4c(c3)OCO4)CC2)C1` (stereo not given), the cytotoxicity at 70.5 h stood at 2.59%.

As for `Cc1cccc(CN2CCc3nnc(CN4CCCCC4)n3CC2)n1`, the cytotoxicity at 70.5 h was -5.9%.

As to `CN1CCN(Cc2cccnc2)C(=O)C12CCN(Cc1ccco1)CC2`, the cytotoxicity at 70.5 h was -8.43%.

Regarding `c1cncc(C[C@H]2[C@H](N3CCOCC3)CCN2Cc2cccs2)c1`, the cytotoxicity at 70.5 h is -5.01%.
